From ChEMBL document CHEMBL2074028, “Direct interaction between a quinoline derivative, MS-209, and multidrug resistance protein (MRP) in human gastric cancer cells” (Biochem Biophys Res Commun, 1999)

Target: Multidrug resistance-associated protein 1 (Homo sapiens, UniProt P33527)
Experiment: TP_TRANSPORTER: inhibition of LTC4 uptake (LTC4: 0.00134 uM, MS-209: 3 uM) in membrane vesicles from MKN45R0.8 cells
Assay type: functional, cell membranes, Membrane vesicle
Design: scale not given: the % may be the effect or the level left
Conditions: mkn45r0.8, 3 µM

Chain of Multidrug resistance-associated protein 1 (P33527 whole entry): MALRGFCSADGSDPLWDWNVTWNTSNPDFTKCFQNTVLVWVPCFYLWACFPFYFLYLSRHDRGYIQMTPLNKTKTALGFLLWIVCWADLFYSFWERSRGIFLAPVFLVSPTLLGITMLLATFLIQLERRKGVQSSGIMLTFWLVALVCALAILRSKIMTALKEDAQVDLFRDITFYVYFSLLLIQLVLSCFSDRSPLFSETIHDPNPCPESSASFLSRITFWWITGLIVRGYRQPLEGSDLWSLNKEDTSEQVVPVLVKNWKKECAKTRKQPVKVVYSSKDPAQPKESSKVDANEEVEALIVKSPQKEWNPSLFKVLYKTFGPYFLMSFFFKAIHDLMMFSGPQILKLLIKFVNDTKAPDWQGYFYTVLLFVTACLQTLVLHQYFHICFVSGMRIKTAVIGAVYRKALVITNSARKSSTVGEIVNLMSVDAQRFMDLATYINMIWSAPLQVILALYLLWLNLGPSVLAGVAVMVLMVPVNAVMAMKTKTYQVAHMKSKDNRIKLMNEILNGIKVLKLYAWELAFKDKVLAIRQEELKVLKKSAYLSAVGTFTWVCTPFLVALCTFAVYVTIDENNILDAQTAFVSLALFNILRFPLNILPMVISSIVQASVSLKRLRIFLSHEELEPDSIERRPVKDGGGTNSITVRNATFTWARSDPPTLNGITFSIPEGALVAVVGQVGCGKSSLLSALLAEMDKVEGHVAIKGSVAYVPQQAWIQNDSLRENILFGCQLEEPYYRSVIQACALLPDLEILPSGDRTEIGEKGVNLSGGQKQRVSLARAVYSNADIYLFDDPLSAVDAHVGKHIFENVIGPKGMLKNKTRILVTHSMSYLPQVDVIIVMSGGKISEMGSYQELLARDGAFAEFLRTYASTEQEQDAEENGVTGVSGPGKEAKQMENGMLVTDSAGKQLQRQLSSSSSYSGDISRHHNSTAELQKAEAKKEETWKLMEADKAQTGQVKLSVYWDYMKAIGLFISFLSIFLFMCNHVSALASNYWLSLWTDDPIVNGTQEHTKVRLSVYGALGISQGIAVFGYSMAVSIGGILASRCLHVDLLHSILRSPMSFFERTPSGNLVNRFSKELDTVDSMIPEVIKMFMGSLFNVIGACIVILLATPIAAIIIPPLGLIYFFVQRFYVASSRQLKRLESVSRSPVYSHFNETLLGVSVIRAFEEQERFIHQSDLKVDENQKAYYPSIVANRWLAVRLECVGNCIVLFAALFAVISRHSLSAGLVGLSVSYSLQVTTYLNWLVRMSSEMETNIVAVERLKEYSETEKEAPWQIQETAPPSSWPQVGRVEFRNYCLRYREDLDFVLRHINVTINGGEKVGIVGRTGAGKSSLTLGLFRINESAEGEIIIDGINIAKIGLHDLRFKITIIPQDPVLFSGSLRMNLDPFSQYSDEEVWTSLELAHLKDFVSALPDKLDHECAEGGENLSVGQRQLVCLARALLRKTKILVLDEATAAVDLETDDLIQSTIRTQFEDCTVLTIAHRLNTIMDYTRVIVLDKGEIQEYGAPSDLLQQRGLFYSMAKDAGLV

Activity: 20%
SMILES: O=C(C(c1ccccc1)c1ccccc1)N1CCN(C[C@@H](O)COc2cccc3ncccc23)CC1
